Laboratory results: PMC9862026, “In Vivo Toxicity, Redox-Modulating Capacity and Intestinal Permeability of Novel Aroylhydrazone Derivatives as Anti-Tuberculosis Agents” (Pharmaceutics, 2022)
Converted amounts (≈) assume the structure as drawn. “Also recorded” adds a separate entry of the source. Like-named read-outs stand apart in the source and are kept apart here. Marks after values point to notes of the source that are not given here.

Columns and labels:
male Jcl:ICR mice [1] = assay: Sub-acute toxicity, 14 days oral: serum biochemical parameters; format: in vivo; conditions: serum
Procedure: (§1) The sub-acute toxicity effects were assessed after repeated (14 days) oral administration to male mice. […] The experiments were performed with male Jcl: ICR mice at the same age of 6 weeks and weighing approximately 30–35 g, in which the substances were administered daily for 14 days orally with a gastric tube at approximately the same time of the day. The compounds were solubilized with Tween 80 (0.1%) in distilled water and administered orally in a volume of 0.1 mL per 10.0 g. Animals were observed daily for behavioral changes and signs of toxicity. All results were compared with the positive control isoniazid (INH).
(§2) Serum biochemical parameters were assessed as follows.

[2] = system: Glutathione peroxidase in the liver supernatant; assay: Glutathione peroxidase activity in liver supernatant; format: in vivo, mice; conditions: 125 and 250 mg/kg oral, 14 days; vs controls
Procedure: as §2
The Glutathione Peroxidase Cellular Activity Assay Kit (Cat. No. CGP1) and Glutathione Reductase Assay Kit (Cat. No. GRSA) were used to measure the activities of glutathione-related enzymes.

DPPH assay = conditions: 0.1 mM DPPH in methanol, 30 min
Procedure: DPPH (2,2′-diphenyl-1-picrylhydrazyl radical) assay analysis of pure compounds was conducted by the method described by Brand-Williams et al.. First, 500 μL of the test solutions were added to 500 μL of a freshly prepared solution of 0.1 mM DPPH in methanol and incubated in the dark for 30 min. Then the absorbance at 517 nm (A517) was measured against a mixture of DPPH solution and methanol (1:1) as a control.
(§3) All data are presented as IC50, which gave 50% inhibition of the activities and compared against the activity of Trolox—a common antioxidant, at the same concentrations.

female Jcl:ICR mice [3] = conditions: i.p.; for Lethality: female mice
[4] = system: MDA in the liver homogenate; assay: Endogenous MDA (spontaneous lipid peroxidation) in liver homogenate; conditions: both doses (125 and 250 mg/kg) oral, 14 days
Procedure: On day 14, the animals were anesthetized with ketamine/ xylazine and decapitated. […] Livers were taken to assess oxidative stress and antioxidant status in the study groups.
For the in vivo experiments (spontaneous lipid peroxidation) the postnuclear homogenates of the liver (mg protein/mL) in 0.15 M KCl—10 mM potassium phosphate buffer, pH 7.2, were heated for 15 min at 100 °C in the presence of 40% TCA + 5N HCl + 2% thiobarbituric acid (2:1:2 v/v) for color developing. After cooling and centrifugation, the absorbance was read at 532 nm against dd H2O as blank. The values were expressed in nmoles malondialdehyde (MDA) per mg protein, with a molar extinction coefficient of 1.56 × 10^−5 M^−1cm^−1.

[5] = system: M. tuberculosis H37Rv reference strain; conditions: ref [23]; cited from earlier work
in vivo = conditions: female, Jcl:ICR, mouse, po
male Jcl:ICR mice [6] = assay: Sub-acute toxicity, 14 days oral: complete blood count; format: in vivo
Procedure: as §1, §2

[7] = system: GSH in the liver homogenate; assay: Total glutathione in liver homogenate; format: in vivo, mice; conditions: both doses (125 and 250 mg/kg) oral, 14 days
Procedure: as §2
According to Rahman et al. total glutathione (tGSH) concentration was determined. In the reaction between GSH and 5,5′-dithiobis-2-nitrobenzoic acid (DTNB), the rate of formation of colored substance, 5′-thio-2-nitrobenzoic acid (TNB), is proportional to the concentration of tGSH in the sample. The maximal absorption of colored TNB is at 412 nm. The concentration of tGSH was calculated using oxidized glutathione as a reference standard and was expressed as ng/mg protein.

female Jcl:ICR mice [8] = system: female Jcl:ICR mice
male Jcl:ICR mice [9] = assay: Sub-acute toxicity, 14 days oral: body weight; format: in vivo; conditions: 125 mg/kg oral, end of 14-day period
Procedure: as §1, §2

ABTS•+ assay = conditions: 15 min at 37 °C
Procedure: ABTS (2,2′-azino-bis (3-ethylbenzthiazoline-6-sulphonic acid) (7.0 mM) was mixed with potassium persulfate (2.45 mM) to obtain the cationic radical (ABTS•+) The solution was diluted in methanol (2 mL ABTS•+ + 58 mL methanol). The absorption at 743 nm of the resulting working solution was 1.1 ± 0.02 AU. Then, 1.425 mL of ABTS•+ working solution was added to 75 μL of the test drugs, and the absorption at 743 nm was measured after 15 min of incubation at 37 °C against methanol. A blank containing 75 μL of water instead of the test extract also was measured against methanol.
as §3

HEK-293T = conditions: cited from earlier work

COc1cc(C=NNC(=O)c2snnc2C)ccc1O [3a, N′-[(4-hydroxy-3-methoxyphenyl)methylidene]-4-methyl-1,2,3-thiadiazole-5-carbohydrazide]
ALAT (male Jcl:ICR mice [1]; 125 mg/kg oral): 62.2 ± 3.3 ^+ U/L
ALB (male Jcl:ICR mice [1]; 125 mg/kg oral): 26.6 ± 2.2 ^+ g/L
ASAT (male Jcl:ICR mice [1]; 125 mg/kg oral): 102 ± 3.6 ^+ U/L
CREAT (male Jcl:ICR mice [1]; 125 mg/kg oral): 95.6 ± 6.6 ^+ µmol/L
D-Bil (male Jcl:ICR mice [1]; 125 mg/kg oral): 3.4 ± 0.46 ^+ µmol/L
GLU (male Jcl:ICR mice [1]; 125 mg/kg oral): 6.3 ± 0.36 mmol/L
T-Bil (male Jcl:ICR mice [1]; 125 mg/kg oral): 7.6 ± 0.44 ^+ µmol/L
TP (male Jcl:ICR mice [1]; 125 mg/kg oral): 54.3 ± 2.6 ^+ g/L
UA (male Jcl:ICR mice [1]; 125 mg/kg oral): 163 ± 23.4 µmol/L
UREA (male Jcl:ICR mice [1]; 125 mg/kg oral): 8.8 ± 0.28 ^+ mmol/L
ALAT (male Jcl:ICR mice [1]; 250 mg/kg oral): 71.4 ± 3.4 *^+ U/L
ALB (male Jcl:ICR mice [1]; 250 mg/kg oral): 27.3 ± 3.1 ^+ g/L
ASAT (male Jcl:ICR mice [1]; 250 mg/kg oral): 113 ± 4.1 U/L
CREAT (male Jcl:ICR mice [1]; 250 mg/kg oral): 86.4 ± 5.6 ^+ µmol/L
D-Bil (male Jcl:ICR mice [1]; 250 mg/kg oral): 4.9 ± 0.34 ^+ µmol/L
GLU (male Jcl:ICR mice [1]; 250 mg/kg oral): 7.1 ± 0.24 mmol/L
T-Bil (male Jcl:ICR mice [1]; 250 mg/kg oral): 8.3 ± 0.28 ^+ µmol/L
TP (male Jcl:ICR mice [1]; 250 mg/kg oral): 58.6 ± 3.6 ^+ g/L
UA (male Jcl:ICR mice [1]; 250 mg/kg oral): 194 ± 17.7 µmol/L
UREA (male Jcl:ICR mice [1]; 250 mg/kg oral): 11.5 ± 0.22 ^+ mmol/L
activity of GPx in liver [2]: restored the control values of GPx; also recorded: did not statistically significantly alter
DPPH Scavenging, IC50 (DPPH assay): 47.5 * mg/mL
Lethality (female Jcl:ICR mice [3]; 500 mg/kg b.w.): 0/3
Lethality (female Jcl:ICR mice [3]; 1000 mg/kg b.w.): 0/3
Symptoms before Death Occur (female Jcl:ICR mice [3]; 1500 mg/kg b.w.): Delayed reflexes, somnolence, lethal outcome
Time of Occurrence of Fatal Outcome (female Jcl:ICR mice [3]; 1500 mg/kg b.w.): After 30 h
Symptoms before Death Occur (female Jcl:ICR mice [3]; 2000 mg/kg b.w.): Impaired coordination, rapid breathing, lethal outcome
Time of Occurrence of Fatal Outcome (female Jcl:ICR mice [3]; 2000 mg/kg b.w.): After 24 h
Symptoms before Death Occur (female Jcl:ICR mice [3]; 3000 mg/kg b.w.): Respiratory failure with long pauses, ataxia, piloerection, seizures, lethal outcome
Time of Occurrence of Fatal Outcome (female Jcl:ICR mice [3]; 3000 mg/kg b.w.): After 20 h
MDA content in the liver [4]: restoration of MDA to the control levels
MIC [5]: 0.0730 µM (≈ 0.0213 µg/mL)
LD50 at 14 days (in vivo): > 2500 mg/kg
HCT (male Jcl:ICR mice [6]; 125 mg/kg oral): 37.2 ± 2.6 ^+ %
Hgb (male Jcl:ICR mice [6]; 125 mg/kg oral): 127 ± 5.4 ^+ g/L
PLT (male Jcl:ICR mice [6]; 125 mg/kg oral): 979 ± 238 10^9/L
RBC (male Jcl:ICR mice [6]; 125 mg/kg oral): 6.84 ± 0.3 ^+ × 10^12/L
WBC (male Jcl:ICR mice [6]; 125 mg/kg oral): 6.3 ± 0.36 ^+ × 10^9/L
HCT (male Jcl:ICR mice [6]; 250 mg/kg oral): 38.2 ± 1.8 ^+ %
Hgb (male Jcl:ICR mice [6]; 250 mg/kg oral): 129 ± 3.8 ^+ g/L
PLT (male Jcl:ICR mice [6]; 250 mg/kg oral): 638 ± 181 10^9/L
RBC (male Jcl:ICR mice [6]; 250 mg/kg oral): 6.97± 0.3 ^+ × 10^12/L
WBC (male Jcl:ICR mice [6]; 250 mg/kg oral): 7.4 ± 0.44 *^+ × 10^9/L
CBC deviations from the reference values (male Jcl:ICR mice [6]; both doses (125 and 250 mg/kg) oral): no statistically significant deviations from the reference values
level of GSH in liver homogenate [7]: did not significantly increase the level of GSH
resorption index (IR) = LD50 i.p./LD50 p.os. × 100 (female Jcl:ICR mice [8]; mice): ≈ 49%; also recorded: ≈ 98%
Mortality (female Jcl:ICR mice [8]; oral administration, highest dose of 3000 mg/kg): No mortality
Body weight gain compared to the beginning of the experimental period (male Jcl:ICR mice [9]): 41%
ABTS Scavenging, IC50 (ABTS•+ assay): 89.47 * mg/mL
IC50 (HEK-293T): 257 µM
